Results published in patent publication US10800784B2, “Nitrogen-containing heterocyclic amide compound and pharmaceutical use thereof” (Japan Tobacco Inc., priority 2018, dated 2020).

What was measured:
[1] = biological target: human PDHK1 (hPDHK1) (Homo sapiens (Human), UniProt Q15118); assay: Inhibitory action of PDHK1 activity in vitro (residual PDH activity after PDHK reaction); format: biochemical; settings: for IC50: PDH/hPDHK1 complex solution, PDHK reaction at room temperature for 45 min, NADH absorbance at 340 nm, read-out: hPDK1 IC50; for inhibition at 0.003 µM: at 3 nmol/L, shown when IC50 value could not be calculated, read-out: hPDHK1 inhibitory rate at the lowest concentration of the test compound
Method: (§1) The inhibitory action of PDHK activity was assessed indirectly by measuring the residual PDH activity after PDHK reaction in the presence of a test compound.
(Inhibitory Action of PDHK1 Activity)
In the case of human PDHK1 (hPDHK1, NCBI Reference Database Accession number NM_002610.3), a 1.3 kbp fragment encoding this protein was isolated from human liver cDNA by polymerase chain reaction (PCR). Modified hPDHK1 cDNA wherein FLAG-Tag sequence was added to the N terminus was prepared by PCR and ligated to the NdeI/EcoRI site of pET-17b vector (Merck MGaA, model number 69663-3). The recombinant construct was transformed into Escherichia coli DH5a (TOYOBO, model number DNA-903). The recombinant clones were identified, and plasmid DNA was isolated and subjected to the DNA sequence analysis. One clone which had the expected nucleic acid sequence was selected for expression work.
For expression of hPDHK1 activity, Escherichia coli strain BL21(DE3) cells (Merck KGaA, model number 69450-4) were transformed with the pET17b vector containing modified hPDHK1 cDNA. The Escherichia coli were grown to an optical density 0.6 ([…]) at 30° C. Protein expression was induced by the addition of 500 μmol/L isopropyl-β-thiogalactopyranoside. The Escherichia coli were cultured at 20° C. for 17-18 hr and harvested by centrifugation.
The harvested Escherichia coli was resuspended in a suspension buffer (20 mmol/L N-(2-hydroxyethyl)piperazine-N′-2-ethanesulfonic acid-sodium hydroxide (HEPES-NaOH), 500 mmol/L sodium chloride, 1% ethylene glycol, and 0.1% polyoxyethylene-polyoxypropylene block copolymer (Pluronic F-68), complete, EDTA-free (pH 8.0)) and disrupted by a microfluidizer M-110H (MIZUHO INDUSTRIAL CO., LTD.) or ultrasonication. The precipitate was removed by centrifugation and the supernatant was added to DDDDK-tagged Protein PURIFICATION GEL (MBL, model number 3329). DDDDK-tagged Protein PURIFICATION GEL was washed with a washing buffer (20 mmol/L HEPES-NaOH, 500 mmol/L sodium chloride, 1% ethylene glycol, 0.1% pluronic F-68 (pH 8.0)) and the bound protein was eluted with elution buffer 1 (20 mmol/L HEPES-NaOH, 100 μg/mL peptide (amino acid sequence DYKDDDDK) (SEQ ID NO: 1), 500 mmol/L sodium chloride, 1% ethylene glycol, 0.1% pluronic F-68 (pH 8.0)).
The eluted fractions containing FLAG-Tagged protein were pooled, concentrated by an ultrafiltration method, added to a gel filtration column (HiLoad 26/60 Superdex 200 (GE Healthcare, model number 17-1070-01)), and eluted with elution buffer 2 (20 mmol/L HEPES-NaOH, 150 mmol/L sodium chloride, 0.5 mmol/L ethylenediaminetetraacetic acid (EDTA), 1% ethylene glycol, 0.1% pluronic F-68 (pH 8.0)). The eluted fractions were pooled and preserved at −80° C.
(§2) 0.025 U/mL PDH (porcine heart PDH complex, Sigma P7032) and 0.5 μg/mL hPDHK1 were mixed in an assay buffer (50 mmol/L 3-morpholinopropanesulfonic acid (pH 7.0), 20 mmol/L dipotassium hydrogen phosphate, 60 mmol/L potassium chloride, 2 mmol/L magnesium chloride, 0.4 mmol/L EDTA, 0.2% poloxamer, 2 mmol/L dithiothreitol), and the mixture was incubated at 4° C. overnight to obtain a PDH/hPDHK1 complex solution. In the assay buffer, 0.025 U/mL PDH was mixed and incubated at 4° C. overnight to prepare a PDH solution.
The test compounds were diluted with dimethyl sulfoxide (DMSO). To measure an inhibitory action of the test compound on the PDHK activity in the PDH/hPDHK1 complex solution, PDH/hPDHK1 complex solution (20 μL), test compound (1.5 μL) and 0.353 μmol/L ATP (diluted with assay buffer) (8.5 μL) were added to a 384 well microplate (Greiner Bio-One 781801) and PDHK reaction was performed at room temperature for 45 min (test compound well). DMSO (1.5 μL) was added to control wells instead of test compound. In addition, DMSO (1.5 μL) was added to blank wells instead of the test compound, and PDH solution was added instead of the PDH/hPDHK1 complex solution. […]

[2] = biological target: human PDHK2 (hPDHK2) (Homo sapiens (Human), UniProt Q15119); assay: Inhibitory action of PDHK2 activity in vitro (residual PDH activity after PDHK reaction); format: biochemical; settings: for IC50: PDH/hPDHK2 complex solution, PDHK reaction at room temperature for 45 min, NADH absorbance at 340 nm, read-out: kPDK2 IC50; for hPDHK2 inhibitory rate at the lowest concentration of the test compound: lowest concentration of the test compound in the assay (<3 nmol/L), shown when IC50 value could not be calculated
Method: as §1
(Inhibitory Action of PDHK2 Activity)
In the case of human PDHK2 (hPDHK2, NCBI Reference Database Accession number NM_002611.4), modified hPDHK2 cDNA wherein FLAG-Tag sequence was added to the N terminus of hPDHK2 cDNA clone (pReceiver-M01/PDK2-GeneCopoeia) as the base was prepared by PCR and ligated to the NdeI/EcoRI site of pET-17b vector. The recombinant construct was transformed into Escherichia coli DH5a. The recombinant clones were identified, and plasmid DNA was isolated and subjected to the DNA sequence analysis. One clone which had the expected nucleic acid sequence was selected for expression work.
For expression of hPDHK2 activity, Escherichia coli strain BL21(DE3) cells were transformed with the pET17b vector containing modified hPDHK2 cDNA. The Escherichia coli were grown to an optical density 0.6 ([…]) at 30° C. Protein expression was induced by the addition of 500 μmol/L isopropyl-β-thiogalactopyranoside. The Escherichia coli were cultured at 20° C. for 17-18 hr and harvested by centrifugation. The harvested Escherichia coli was resuspended in a suspension buffer (20 mmol/L HEPES-NaOH, 500 mmol/L sodium chloride, 1% ethylene glycol, 0.1% pluronic F-68 (pH 8.0), cOmplete, EDTA-free (pH 8.0)), and disrupted by a microfluidizer. The precipitate was removed by centrifugation and the supernatant was added to DDDDK-tagged Protein PURIFICATION GEL. DDDDK-tagged Protein PURIFICATION GEL was washed with a washing buffer (20 mmol/L HEPES-NaOH, 500 mmol/L sodium chloride, 1% ethylene glycol, 0.1% pluronic F-68 (pH 8.0)) and the bound protein was eluted with elution buffer 1 (20 mmol/L HEPES-NaOH, 100 μg/mL peptide (amino acid sequence DYKDDDDK) (SEQ ID NO: 1), 500 mmol/L sodium chloride, 1% ethylene glycol, 0.1% pluronic F-68 (pH 8.0)). The eluted fractions containing FLAG-Tagged protein were pooled, concentrated by an ultrafiltration method, added to a gel filtration column (HiLoad 26/60 Superdex 200), and eluted with elution buffer 2 (20 mmol/L HEPES-NaOH, 150 mmol/L sodium chloride, 0.5 mmol/L ethylenediaminetetraacetic acid (EDTA), 1% ethylene glycol, 0.1% pluronic F-68 (pH 8.0)). The eluted fractions were pooled and preserved at −80° C.
as §2, with “PDH” for “PDH (porcine heart PDH complex, Sigma P7032)”, “hPDHK2” for “hPDHK1”, “PDH/hPDHK2” for “PDH/hPDHK1”
The test compounds were diluted with DMSO. To measure an inhibitory action of the test compound on the PDHK activity in the PDH/hPDHK2 complex solution, PDH/hPDHK2 complex solution (20 μL), test compound (1.5 μL) and 1.06 μmol/L ATP (diluted with assay buffer) (8.5 μL) were added to a 384 well microplate and PDHK reaction was performed at room temperature for 45 min (test compound well). DMSO (1.5 μL) was added to control wells instead of test compound. In addition, DMSO (1.5 μL) was added to blank wells instead of the test compound, and PDH solution was added instead of the PDH/hPDHK2 complex solution. To measure an inhibitory action of the test compound on the PDHK activity inherent in the PDH solution, a test compound was added and the PDH solution instead of the PDH/hPDHK2 complex solution was added to a blank+test compound well.
Then, 10 μL of substrates (5 mmol/L sodium pyruvate, 5 mmol/L Coenzyme A, 12 mmol/L NAD, 5 mmol/L thiamine pyrophosphate, diluted with assay buffer) were added. The mixture was incubated at room temperature for 90 min, and the residual PDH activity was measured. […]

Sequence of human PDHK1 (hPDHK1) (Q15118 29-436): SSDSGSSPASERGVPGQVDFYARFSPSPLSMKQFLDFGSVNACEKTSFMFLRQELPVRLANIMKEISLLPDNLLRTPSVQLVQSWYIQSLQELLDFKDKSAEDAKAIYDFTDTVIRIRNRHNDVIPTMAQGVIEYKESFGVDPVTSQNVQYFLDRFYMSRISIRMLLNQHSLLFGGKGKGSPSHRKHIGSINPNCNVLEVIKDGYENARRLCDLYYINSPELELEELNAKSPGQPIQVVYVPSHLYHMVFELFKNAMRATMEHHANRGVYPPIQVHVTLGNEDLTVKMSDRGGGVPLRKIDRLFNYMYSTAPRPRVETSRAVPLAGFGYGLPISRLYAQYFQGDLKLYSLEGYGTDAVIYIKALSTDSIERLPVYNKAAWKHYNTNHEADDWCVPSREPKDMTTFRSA

Row | SMILES | IC50 [1] [nM] | IC50 [2] [nM] | inhibition at 0.003 µM [1] [%] | hPDHK2 inhibitory rate at the lowest concentration of the test compound [2] [%]
1 | C[C@H]1CN(C(=O)c2cnc(-c3ccccc3)nc2)Cc2cnc([C@@](C)(O)C(F)(F)F)n21 [Example 56] | 10 | 10 |  | 
2 | C[C@H]1CN(C(=O)c2c(Cl)c(C3CC3)nn2C)Cc2cnc([C@@](C)(O)C(F)(F)F)n21 [Example 22] | 6 | 8 |  | 
3 | C[C@H]1CN(C(=O)C2(C)CN(c3ccc(F)cn3)C2)Cc2cnc([C@@](C)(O)C(F)(F)F)n21 [Example 90] | 66 | 45 |  | 
4 | C[C@H]1CN(C(=O)c2ccc(C3CC3)cc2)Cc2cnc([C@@](C)(O)C(F)(F)F)n21 [Example 18] | 7 | 7 |  | 
5 | C[C@H]1CN(C(=O)c2ccc(=O)n(-c3ccc(F)cc3)c2)Cc2cnc([C@@](C)(O)C(F)(F)F)n21 [Example 57] | 11 | 10 |  | 
6 | C[C@H]1CN(C(=O)c2cc(C3CC3)nn2C)Cc2nnc([C@@](C)(O)C(F)(F)F)n21 [Example 123] | 6 | 12 |  | 
7 | C[C@H]1CN(C(=O)c2ccc(-c3ccc(C#N)cc3)cn2)Cc2cnc([C@@](C)(O)C(F)(F)F)n21 [Example 45] | 9 | 8 |  | 
8 | C[C@H]1CN(C(=O)[C@H]2CCN(c3ccc(C#N)cn3)C2)Cc2cnc([C@@](C)(O)C(F)(F)F)n21 [Example 92] | 27 | 23 |  | 
9 | C[C@H]1CN(C(=O)c2ccc3nn(C)cc3c2)Cc2cnc([C@@](C)(O)C(F)(F)F)n21 [Example 12] | 8 | 10 |  | 
10 | C[C@H]1CN(C(=O)c2ccc(=O)n(C3CC3)c2)Cc2cnc([C@@](C)(O)C(F)(F)F)n21 [Example 24] | 42 | 36 |  | 
11 | C[C@H]1CN(C(=O)[C@H]2NCCc3ccccc32)Cc2onc([C@@](C)(O)C(F)(F)F)c21 [Example 105] | 9 | 8 |  | 
12 | C[C@H]1CN(C(=O)c2cc(C3CC3)nn2C2CC2)Cc2cnc([C@@](C)(O)C(F)(F)F)n21 [Example 29] | 7 | 7 |  | 

The next compounds have a lower IC50 [1] than those just listed; values first:

Row | IC50 [1] [nM] | IC50 [2] [nM] | inhibition at 0.003 µM [1] [%] | hPDHK2 inhibitory rate at the lowest concentration of the test compound [2] [%] | SMILES
13 | < 3 | < 3 | 67 | 66 | C[C@H]1CN(C(=O)c2n[nH]c3c2CCC(C)(C)C3)Cc2onc([C@@](C)(O)C(F)(F)F)c21 [Example 103]
14 | < 3 | < 3 | 68 | 57 | C[C@H]1CN(C(=O)c2cc(C3CC3)nn2C)Cc2cnc([C@@](C)(O)C(F)(F)F)n21 [Example 14]
15 | 5 | 7 |  |  | Cc1cc(C#N)ccc1-c1cc(C(=O)N2Cc3cnc([C@@](C)(O)C(F)(F)F)n3[C@@H](C)C2)ccn1 [Example 63]
16 | 4 | 6 |  |  | C[C@H]1CN(C(=O)c2cc(-c3ccc(C#N)cc3)ncc2F)Cc2cnc([C@@](C)(O)C(F)(F)F)n21 [Example 68, 4-(5-fluoro-4-((S)-5-methyl-3-((R)-1,1,1-trifluoro-2-hydroxypropan-2-yl)-5,6,7,8-tetrahydroimidazo[1,5-a]pyrazine-7-carbonyl)pyridin-2-yl)benzonitrile]
17 | 5 | 8 |  |  | C[C@H]1CN(C(=O)c2cccc(-c3ccc(C#N)cn3)c2)Cc2cnc([C@@](C)(O)C(F)(F)F)n21 [Example 79]
18 | 3 | 4 |  |  | C[C@H]1CN(C(=O)c2ccnc(-c3ccc(F)cc3F)c2)Cc2cnc([C@@](C)(O)C(F)(F)F)n21 [Example 88]
19 | 4 | 3 |  |  | Cc1cc(-c2ccc(F)cc2C#N)ncc1C(=O)N1Cc2cnc([C@@](C)(O)C(F)(F)F)n2[C@@H](C)C1 [Example 59]
20 | 4 | 7 |  |  | C[C@H]1CN(C(=O)c2cncc(-c3ccc(C#N)cc3F)c2)Cc2cnc([C@@](C)(O)C(F)(F)F)n21 [Example 71]
21 | 5 | 9 |  |  | C[C@H]1CN(C(=O)C(C)(C)c2ccc(-c3nn[nH]n3)cc2)Cc2onc([C@@](C)(O)C(F)(F)F)c21 [Example 120]
